This assay has as its system GM-CSF. Description: GM-CSF activity on bone marrow precursors (liquid culture, methylene blue dye absorbance of adherent granulocytes and macrophages). It counts as cell-based, murine. The settings on record: at any of the test concentrations (Figure 2). Here is the method:
To determine the effect of the desired inhibitory oligopeptide, the following assay, using murine bone marrow precursors, was developed. Of course, if using an oligopeptide derivable from a species other than murine, substitution of cells from that species into the assay procedure would be required.
The biological activity of GM-CSF was determined in a liquid culture system of murine bone marrow cells (see, e.g., I. Bursuker, et al., J. Reticuloendothelial Soc., 25, 533 (1979)). Bone marrow cells were collected from femurs and tibia of 10 to 12 week old CB6F1 (C57BLxBalb/c) male mice (Harlan-Sprague Dawley, Inc., Indianapolis, Indiana) by flushing dissected and clean bones with phosphate buffered saline ("PBS", GIBCO, Grand Island, New York). Viable cell count was determined using trypan blue. The cells then were plated (1 ml/well; 2 X 10^5 cells/ml) in 24-well tissue culture plates (Costar, Cambridge, MA). Granulocyte-macrophage colony stimulating factor ("GM-CSF"; 2 ng/ml; recombinantly produced and available from PeproTech, Inc., Rocky Hill, NJ) and the desired oligopeptide were added at the desired concentration to the wells. […] The dye absorbance was measured at 620 nm in a MCC/340 Titertech Multiscan plate reader (Eflab, Helsinki, Finland). The dye absorbance reading is proportional to the number of cells in the culture.

Where no end group is shown, it is not given here.

Take “YYQTYCPPTPETD [Oligopeptide P96-109, oligopeptide spanning a region of the murine GM-CSF molecule, 13 amino acids]”: the “effect on the biological activity of GM-CSF” value is on record as “did not affect”.

(Values after patent publication EP0499162A2, “GM-CSF inhibiting oligopeptides” (Bristol-Myers Squibb Company, priority 1991, dated 1992).)
